Some test systems named below: NCI-H226 lung; MALME-3M melanoma; RPMI-8226 leukemia; OVCAR-4 ovarian; HCT-15 colon; U251 CNS; HCC-2998 colon; 786-0 renal; HOP-62 NSCLC; HL-60(TB) leukemia.
What all share (assay): NCI-60 cell line screen, 48 h

Molecules are shown by their SMILES.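 Five compound concentrations were applied to cells in 96-well plates for 48 hours; endpoints were derived by simple linear interpolation of the resulting dose-response curve. GI50: concentration for 50% inhibition of growth. TGI: concentration producing complete growth inhibition.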

As to `O=c1c2ccccc2c2nc3ccccc3nc2n1C1CCCCC1`, the TGI with NCI-H226 lung, in the assay on MALME-3M melanoma, in the assay on RPMI-8226 leukemia, in the assay with OVCAR-4 ovarian, with HCT-15 colon and in the assay with U251 CNS was more than 100 µM in each case. The TGI in the assay on HCC-2998 colon and in the assay with 786-0 renal was more than 100 µM in each case.
Take `Nc1ccc(/C=N/Nc2ccnc3c(N)cccc23)c2cccnc12`: the GI50 was 4.12 µM in the assay on NCI-H226 lung; 1.54 µM in the assay with OVCAR-4 ovarian; 1.81 µM with HOP-62 NSCLC; 1.34 µM in the assay with HCT-15 colon; 1.61 µM in the assay with U251 CNS; 1.81 µM in the assay on HCC-2998 colon. In the assay on 786-0 renal, the GI50 is 1.59 µM. Also, the TGI in the assay on NCI-H226 lung is 20.8 µM; in the assay on OVCAR-4 ovarian it was 3.35 µM; with HOP-62 NSCLC, 3.53 µM; with HCT-15 colon, 2.9 µM; in the assay with U251 CNS, 3.09 µM; with HCC-2998 colon, 3.3 µM. Moreover, the TGI in the assay on 786-0 renal was 3.04 µM.
As for `NC(=S)N/N=C1/C(=O)N(c2ccc(Cl)cc2Cl)C(=O)C(=O)C1c1nc2ccccc2s1` (centres undefined), the TGI in the assay on NCI-H226 lung, with MALME-3M melanoma, with RPMI-8226 leukemia, in the assay on OVCAR-4 ovarian, in the assay on HOP-62 NSCLC and in the assay with HCT-15 colon was more than 100 µM in each case. For the same compound, the TGI in the assay with U251 CNS, in the assay on HCC-2998 colon and with 786-0 renal was more than 100 µM each time.
For the compound `CC1C=CC(=O)C(n2cc(F)c(=O)[nH]c2=O)O1` (centres undefined), the TGI in the assay with MALME-3M melanoma is 35.5 µM; in the assay on RPMI-8226 leukemia it was 38.7 µM; with OVCAR-4 ovarian it was 34.3 µM; with HOP-62 NSCLC, 45.7 µM; in the assay with HL-60(TB) leukemia it was 47.9 µM; in the assay on HCT-15 colon it was 42.4 µM. Besides, the figures for the TGI in the assay on U251 CNS and with 786-0 renal were 29.5 µM and 31.3 µM, respectively.
With `CC12CCC[C@@](C)(C(=O)OC3OC(CO)C(O)C(O)C3O)[C@H]1CCC13CC4CC(OC4(CO)[C@H]1O)[C@@H]23` (some centres undefined), the TGI in the assay on NCI-H226 lung, with MALME-3M melanoma, in the assay on RPMI-8226 leukemia, in the assay with OVCAR-4 ovarian, in the assay with HOP-62 NSCLC and with HCT-15 colon was more than 100 µM throughout. For the same compound, the TGI with U251 CNS, with HCC-2998 colon and with 786-0 renal was more than 100 µM in each case.
Consider `COc1ccc2c(c1)CC[C@@H]1[C@@H]2CC[C@]2(C)C(c3ccco3)=C(C=O)C[C@@H]12`, for which the GI50 is 21.6 µM with NCI-H226 lung; 3.89 µM with RPMI-8226 leukemia; 20 µM in the assay on OVCAR-4 ovarian; 20.9 µM in the assay on HOP-62 NSCLC; 4.19 µM in the assay on HCT-15 colon; 4.13 µM with U251 CNS. The GI50 in the assay on HCC-2998 colon was 6.78 µM; with 786-0 renal, 23.1 µM. In addition, the TGI in the assay on NCI-H226 lung is 63.5 µM; in the assay on RPMI-8226 leukemia it was 32.7 µM; in the assay with OVCAR-4 ovarian it was more than 100 µM; in the assay with HOP-62 NSCLC, 46.2 µM; in the assay on HCT-15 colon it was 26.7 µM; with U251 CNS, 18.1 µM. In addition, the TGI worked out at 26.3 µM with HCC-2998 colon and 55.5 µM with 786-0 renal.
With `COc1ccc2c(c1)CCC1C2CC[C@]2(C)/C(=N/OC(=O)Cc3ccccc3)CCC12` (some centres undefined), the GI50 with NCI-H226 lung was 18.8 µM; in the assay on MALME-3M melanoma it was 20.7 µM; in the assay on RPMI-8226 leukemia it was 12.4 µM; with OVCAR-4 ovarian, 18.4 µM; in the assay with HOP-62 NSCLC, 17.2 µM; in the assay with HCT-15 colon it was 18 µM. For the same compound, the GI50 is 19.6 µM in the assay with U251 CNS, 19.8 µM in the assay on HCC-2998 colon and 18.3 µM with 786-0 renal. The TGI is 36.5 µM with NCI-H226 lung; 37.4 µM in the assay with MALME-3M melanoma; 52.5 µM with RPMI-8226 leukemia; 48.5 µM in the assay on OVCAR-4 ovarian; 31.6 µM with HOP-62 NSCLC; 36.3 µM in the assay with HCT-15 colon. In addition, the values for the TGI in the assay on U251 CNS, in the assay on HCC-2998 colon and in the assay with 786-0 renal were 37.4 µM, 35.6 µM and 33.3 µM, respectively.
Turning to `O=[N+]([O-])c1nccn1COCCF`, the TGI in the assay on NCI-H226 lung, in the assay on MALME-3M melanoma, in the assay on RPMI-8226 leukemia, in the assay with OVCAR-4 ovarian, in the assay on HOP-62 NSCLC and with HL-60(TB) leukemia was more than 100 µM each time. For the same compound, the TGI with HCT-15 colon, with U251 CNS and in the assay on 786-0 renal was more than 100 µM in each case.
Consider `Nc1nc2nc[nH]c2c(=O)[nH]1`, for which the TGI in the assay on NCI-H226 lung, with MALME-3M melanoma, with RPMI-8226 leukemia, in the assay on OVCAR-4 ovarian, with HOP-62 NSCLC and in the assay with HL-60(TB) leukemia was more than 100 µM throughout. Further, the TGI with HCT-15 colon, in the assay on U251 CNS and with 786-0 renal was more than 100 µM throughout.
Take `NCc1nnn(Cc2ccccc2)c1N`: the TGI in the assay with NCI-H226 lung, with MALME-3M melanoma, with RPMI-8226 leukemia, in the assay on OVCAR-4 ovarian, with HOP-62 NSCLC and in the assay on HL-60(TB) leukemia was more than 100 µM throughout. In addition, the TGI with HCT-15 colon, with U251 CNS and with 786-0 renal was more than 100 µM in each case.
For `COc1ccc2nc3ccccc3c(NCCCCCCN(C)CCCl)c2c1`, the TGI in the assay with NCI-H226 lung stood at 1.55 µM; with MALME-3M melanoma, 2.06 µM; in the assay on RPMI-8226 leukemia it was 1.19 µM; with OVCAR-4 ovarian it was 3.03 µM; in the assay on HOP-62 NSCLC, 3.03 µM; in the assay on HCT-15 colon, 2.01 µM. Further, the TGI in the assay with U251 CNS amounted to 1.75 µM; in the assay on HCC-2998 colon, 1.98 µM; in the assay on 786-0 renal, 1.53 µM.
As for `C=C(C)[C@@H]1CC[C@]2(C)[C@H](CC[C@@H]3[C@H]4[C@H]5OC[C@@]4(CCC5(C)C)CC[C@]32C)[C@@]1(C)CCCN`, the GI50 in the assay with MALME-3M melanoma is 1.77 µM; with RPMI-8226 leukemia it was 2.05 µM; in the assay on OVCAR-4 ovarian, 2.04 µM; in the assay on HOP-62 NSCLC it was 2 µM; in the assay with HCT-15 colon, 1.59 µM; in the assay with U251 CNS, 1.67 µM. Also, the GI50 with HCC-2998 colon is 1.49 µM; in the assay on 786-0 renal, 1.67 µM. Further, the TGI with MALME-3M melanoma was found to be 3.45 µM; in the assay on RPMI-8226 leukemia, 5.09 µM; in the assay on OVCAR-4 ovarian, 3.78 µM; with HOP-62 NSCLC, 4.42 µM; in the assay with HCT-15 colon, 2.99 µM; in the assay on U251 CNS, 3.15 µM. For the same compound, the results for the TGI with HCC-2998 colon and in the assay on 786-0 renal were 2.91 µM and 3.17 µM, respectively.

Values taken from PubChem BioAssay (NCI).
